Laboratory results: patent US11479556B1, “Bifunctional compounds for degrading BTK via ubiquitin proteosome pathway” (NURIX THERAPEUTICS, INC., priority 2018, dated 2022)

What follows are compounds tested against T1, BTK (Homo sapiens, UniProt Q06187) (assay: Cellular BTK HTRF assay (BTK degradation) in TMD8 cells). Details: four hours incubation, Total-BTK HTRF relative to DMSO-treated cells.
T1 construct: endogenous in cells; host or cells: TMD8 cells
T1 sequence (Q06187 whole entry): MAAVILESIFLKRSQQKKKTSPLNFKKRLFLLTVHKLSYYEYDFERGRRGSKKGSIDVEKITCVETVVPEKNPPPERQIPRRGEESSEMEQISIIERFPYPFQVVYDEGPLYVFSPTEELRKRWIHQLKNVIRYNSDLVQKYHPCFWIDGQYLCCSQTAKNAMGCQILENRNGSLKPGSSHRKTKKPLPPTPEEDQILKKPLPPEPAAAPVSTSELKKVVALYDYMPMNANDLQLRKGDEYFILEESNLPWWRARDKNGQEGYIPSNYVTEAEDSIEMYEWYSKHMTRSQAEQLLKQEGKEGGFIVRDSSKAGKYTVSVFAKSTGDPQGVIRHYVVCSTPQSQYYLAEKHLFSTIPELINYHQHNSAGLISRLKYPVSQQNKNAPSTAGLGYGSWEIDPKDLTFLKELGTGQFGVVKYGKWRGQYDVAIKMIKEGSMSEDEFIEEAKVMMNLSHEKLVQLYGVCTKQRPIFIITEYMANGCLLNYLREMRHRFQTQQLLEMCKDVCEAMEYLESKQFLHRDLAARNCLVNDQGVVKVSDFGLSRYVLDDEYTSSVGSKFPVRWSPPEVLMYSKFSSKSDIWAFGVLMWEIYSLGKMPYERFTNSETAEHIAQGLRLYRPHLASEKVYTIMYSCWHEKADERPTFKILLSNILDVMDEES
Type: cell-based
In short: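 TMD8 cells were treated with compounds (final DMSO <0.200) for four hours at 37° C, 5% CO2, then lysed for 30 minutes. Total BTK was measured by two-antibody HTRF, taking the 665/620 nm ratio with background subtracted and expressed relative to DMSO-treated cells. DC50 came from four-parameter nonlinear regression.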
Cn1cc(Nc2nc(N3CCC[C@@H](N4CCC5(CN(CC6CCN(c7ccc8c(=O)n(C9CCC(=O)NC9=O)ccc8c7)CC6)C5)C4=O)C3)cnc2C(N)=O)cn1 (some centres unmarked) [Compound 145] showed a DC50 of under 5 nM. Compound NC(=O)c1ncc(N2CCCC(N3CCCC3=O)C2)nc1Nc1ccc(C2CN(C[C@@H]3CCN(c4ccc5c(c4)C(=O)N(C4CCC(=O)NC4=O)C5=O)C3)C2)cc1 (some centres unmarked) [Compound 146] has a DC50 of under 5 nM. Cn1cc(Nc2nc(N3CCC[C@@H](N4CC5(CN(CC6CCN(c7ccc8c(=O)n(C9CCC(=O)NC9=O)ccc8c7)CC6)C5)OC4=O)C3)cnc2C(N)=O)cn1 (some centres unmarked) [Compound 147] was tested, and the DC50 was under 5 nM. In the case of NC(=O)c1ncc(-c2nccs2)nc1Nc1ccc(C2CCN(C[C@@H]3CCN(c4ccc5c(c4)C(=O)N(C4CCC(=O)NC4=O)C5=O)C3)CC2)cc1 (some centres unmarked) [Compound 148], the DC50 is reported as under 5 nM. In the case of NC(=O)c1ncc(N2CCCCC2)nc1Nc1ccc(C2CCN(C[C@@H]3CCN(c4ccc5c(c4)C(=O)N(C4CCC(=O)NC4=O)C5=O)C3)CC2)cc1 (some centres unmarked) [Compound 149], the DC50 is reported as under 5 nM. For NC(=O)c1ncc(-c2nccs2)nc1Nc1ccc(N2CCC3(CC2)CCN(c2ccc4c(c2)C(=O)N(C2CCC(=O)NC2=O)C4=O)CC3)cc1 (centres unmarked) [Compound 151], the DC50 was over 15 nM. For CN1CCN(C2CCCN(c3cnc(C(N)=O)c(Nc4ccc(C5CCN(CC6CCN(c7ccc8c(c7)CN(C7CCC(=O)NC7=O)C8=O)C6)CC5)cc4)n3)C2)C1=O (centres unmarked) [Compound 152], the DC50 was under 5 nM. For NC(=O)c1ncc(N2CCC[C@@H](N3CCOC3=O)C2)nc1Nc1ccc(C2CCN(CC3CCN(c4ccc5c(=O)n(C6CCC(=O)NC6=O)ccc5c4)CC3)CC2)cc1 (some centres unmarked) [Compound 153], the DC50 was under 5 nM. CN1CCN([C@@H]2CCCN(c3cnc(C(N)=O)c(Nc4ccc(C5CCN(C[C@H]6CC[C@H](Nc7cccc8c7C(=O)N(C7CCC(=O)NC7=O)C8=O)CC6)CC5)cc4)n3)C2)C1=O (some centres unmarked) [Compound 154] showed a DC50 of under 5 nM. CN1CCN([C@@H]2CCCN(c3cnc(C(N)=O)c(Nc4ccc(C5CCN(C(=O)COc6cccc7c6C(=O)N(C6CCC(=O)NC6=O)C7=O)CC5)cc4)n3)C2)C1=O (some centres unmarked) [Compound 158] was tested, and the DC50 was 5 to 15 nM. NC(=O)c1ncc(N2CCC(C(=O)O)CC2)nc1Nc1ccc(C2CCN(C[C@H]3CCN(c4ccc5c(c4)C(=O)N(C4CCC(=O)NC4=O)C5=O)C3)CC2)cc1 (some centres unmarked) [Compound 159] gave a DC50 of 5 to 15 nM. NC(=O)c1ncc(N2CCC(CO)CC2)nc1Nc1ccc(C2CCN(C[C@@H]3CCN(c4ccc5c(c4)C(=O)N(C4CCC(=O)NC4=O)C5=O)C3)CC2)cc1 (some centres unmarked) [Compound 160] gave a DC50 of under 5 nM. With NC(=O)c1ncc(N2CCOCC2)nc1Nc1ccc(C2CCN(C[C@H]3CCN(c4ccc5c(c4)C(=O)N(C4CCC(=O)NC4=O)C5=O)C3)CC2)cc1 (some centres unmarked) [Compound 161] the DC50 was 5 to 15 nM. For NC(=O)c1ncc(N2CCC2)nc1Nc1ccc(C2CCN(C[C@H]3CCN(c4ccc5c(c4)C(=O)N(C4CCC(=O)NC4=O)C5=O)C3)CC2)cc1 (some centres unmarked) [Compound 162], the DC50 was under 5 nM. For NC(=O)c1ncc(N2CCCCC2)nc1Nc1ccc(C2CCN(CC3CCN(c4ccc5ccn(C6CCC(=O)NC6=O)c(=O)c5c4)CC3)CC2)cc1 (centres unmarked) [Compound 163], the DC50 was under 5 nM. Compound NC(=O)c1ncc(N2CCCCC2)nc1Nc1ccc(C2CCN(CC3CCN(c4ccc(OC5CCC(=O)NC5=O)cn4)CC3)CC2)cc1 (centres unmarked) [Compound 164] has a DC50 of 5 to 15 nM. With CN1CCN([C@@H]2CCCN(c3cnc(C(N)=O)c(Nc4ccc(C5CCN(CC6CCN(c7ccc(OC8CCC(=O)NC8=O)cn7)CC6)CC5)cc4)n3)C2)C1=O (some centres unmarked) [Compound 165] the DC50 was 5 to 15 nM. In the case of NC(=O)c1ncc(N2CCCCC2)nc1Nc1ccc(C2CCN(CC3CCN(c4ccc(NC5CCC(=O)NC5=O)cn4)CC3)CC2)cc1 (centres unmarked) [Compound 167], the DC50 is reported as over 15 nM. Compound NC(=O)c1ncc(N2CCC[C@@H](N3CCCC3=O)C2)nc1Nc1ccc(N2CC(C3CCN(c4ccc5c(c4)C(=O)N(C4CCC(=O)NC4=O)C5=O)CC3)C2)nc1 (some centres unmarked) [Compound 168] has a DC50 of under 5 nM. NC(=O)c1ncc(N2CCC[C@@H](N3CCCC3=O)C2)nc1Nc1ccc(N2CC(C3CCN(c4ccc5c(c4)C(=O)N(C4CCC(=O)NC4=O)C5=O)CC3)C2)cc1 (some centres unmarked) [Compound 169] gave a DC50 of under 5 nM. For NC(=O)c1ncc(N2CCC[C@@H](CO)C2)nc1Nc1ccc(C2CCN(CC3CCN(c4ccc(NC5CCC(=O)NC5=O)cn4)CC3)CC2)cc1 (some centres unmarked) [Compound 170], the DC50 was under 5 nM. For NC(=O)c1ncc(N2CCC[C@@H](CO)C2)nc1Nc1ccc(C2CCN(CC3CCN(c4ccc(OC5CCC(=O)NC5=O)cn4)CC3)CC2)cc1 (some centres unmarked) [Compound 171], the DC50 was under 5 nM. NC(=O)c1ncc(N2CCC[C@@H](CO)C2)nc1Nc1ccc(C2CCN(CC3CCN(c4ccc5c(=O)n(C6CCC(=O)NC6=O)ccc5c4)CC3)CC2)cc1 (some centres unmarked) [Compound 172] gave a DC50 of under 5 nM. NC(=O)c1ncc(N2CCC[C@@H](CO)C2)nc1Nc1ccc(C2CCN(CC3CCN(c4ccc(C(=O)NC5CCC(=O)NC5=O)nc4)CC3)CC2)cc1 (some centres unmarked) [Compound 173] was tested, and the DC50 was under 5 nM. Work on NC(=O)c1ncc(N2CCC[C@@H](CO)C2)nc1Nc1ccc(C2CCN(C[C@H]3CCN(c4ccc5c(c4)C(=O)N(C4CCC(=O)NC4=O)C5=O)C3)CC2)cc1 (some centres unmarked) [Compound 174] yielded a DC50 of under 5 nM. With NC(=O)c1ncc(N2CCC(F)(F)C(CO)C2)nc1Nc1ccc(C2CCN(C[C@H]3CCN(c4ccc5c(c4)C(=O)N(C4CCC(=O)NC4=O)C5=O)C3)CC2)cc1 (some centres unmarked) [Compound 175] the DC50 was under 5 nM. Compound NC(=O)c1ncc(N2CCC3(COC3)C2)nc1Nc1ccc(C2CCN(C[C@H]3CCN(c4ccc5c(c4)C(=O)N(C4CCC(=O)NC4=O)C5=O)C3)CC2)cc1 (some centres unmarked) [Compound 176] has a DC50 of under 5 nM. For NC(=O)c1ncc(N2CCCC3(COC3)C2)nc1Nc1ccc(C2CCN(CC3CCN(c4ccc5c(=O)n(C6CCC(=O)NC6=O)ccc5c4)CC3)CC2)cc1 (centres unmarked) [Compound 177], the DC50 was under 5 nM. For Cn1c(-c2ccc(N3CCC(CN4CCC(c5ccc(Nc6nc(N7CCCC8(COC8)C7)cnc6C(N)=O)cc5)CC4)CC3)cc2)nn(C2CCC(=O)NC2=O)c1=O (centres unmarked) [Compound 178], the DC50 was 5 to 15 nM. Work on Cn1c(=O)n(C2CCC(=O)NC2=O)c2ccc(N3CCC(CN4CCC(c5ccc(Nc6nc(N7CCCCC7)cnc6C(N)=O)cc5)CC4)CC3)cc21 (centres unmarked) [Compound 179] yielded a DC50 of under 5 nM. Work on CN1CCN([C@@H]2CCCN(c3cnc(C(N)=O)c(Nc4ccc(C5CCN(CC6CCN(c7ccc(N(C)C8CCC(=O)NC8=O)cn7)CC6)CC5)cc4)n3)C2)C1=O (some centres unmarked) [Compound 180] yielded a DC50 of over 15 nM. With CN(c1ccc(N2CCC(CN3CCC(c4ccc(Nc5nc(N6CCCCC6)cnc5C(N)=O)cc4)CC3)CC2)nc1)C1CCC(=O)NC1=O (centres unmarked) [Compound 181] the DC50 was 5 to 15 nM. NC(=O)c1ncc(N2CCCCC2)nc1Nc1ccc(C2CCN(CC3CCN(c4ccc(C(=O)NC5CCC(=O)NC5=O)nc4)CC3)CC2)cc1 (centres unmarked) [Compound 182] was tested, and the DC50 was under 5 nM. With CNC(C)C(=O)N[C@H](C(=O)N1C[C@@H](NC(=O)CCOCCOCCOCCOCCC(=O)N2CCC(c3ccc(Nc4nc(N5CCC[C@@H](N6CCN(C)C6=O)C5)cnc4C(N)=O)cc3)CC2)C[C@H]1C(=O)N[C@@H]1CCCc2ccccc21)C1CCCCC1 (some centres unmarked) [Compound 183] the DC50 was over 15 nM. In the case of CN1CCN([C@@H]2CCCN(c3cnc(C(N)=O)c(Nc4ccc(C5CCN(C(=O)CNc6cccc7c6C(=O)N(C6CCC(=O)NC6=O)C7=O)CC5)cc4)n3)C2)C1=O (some centres unmarked) [Compound 184], the DC50 is reported as 5 to 15 nM. NC(=O)c1ncc(N2CCCCC2)nc1Nc1ccc(C2CCN(CC3CCN(c4ccc(CC5CCC(=O)NC5=O)cn4)CC3)CC2)cc1 (centres unmarked) [Compound 185] gave a DC50 of over 15 nM. Work on Cc1ncsc1-c1ccc(CNC(=O)[C@@H]2C[C@@H](O)CN2C(=O)[C@@H](NC(=O)C2(F)CC2)C(C)(C)C)c(OCCCCCCCC(=O)N2CCC(c3ccc(Nc4nc(N5CCC[C@@H](N6CCN(C)C6=O)C5)cnc4C(N)=O)cc3)CC2)c1 [Compound 186] yielded a DC50 of over 15 nM. Cc1ncsc1-c1ccc(CNC(=O)[C@@H]2C[C@@H](O)CN2C(=O)[C@@H](NC(=O)C2(F)CC2)C(C)(C)C)c(OCCCCCC(=O)N2CCC(c3ccc(Nc4nc(N5CCC[C@@H](N6CCN(C)C6=O)C5)cnc4C(N)=O)cc3)CC2)c1 [Compound 187] gave a DC50 of over 15 nM. Cc1ncsc1-c1ccc([C@H](C)NC(=O)[C@@H]2C[C@@H](O)CN2C(=O)[C@@H](NC(=O)CCCCCCCC(=O)N2CCC(c3ccc(Nc4nc(N5CCC[C@@H](N6CCN(C)C6=O)C5)cnc4C(N)=O)cc3)CC2)C(C)(C)C)cc1 [Compound 188] was tested, and the DC50 was over 15 nM. Work on Cc1ncsc1-c1ccc([C@H](C)NC(=O)[C@@H]2C[C@@H](O)CN2C(=O)[C@@H](NC(=O)CCCCCC(=O)N2CCC(c3ccc(Nc4nc(N5CCC[C@@H](N6CCN(C)C6=O)C5)cnc4C(N)=O)cc3)CC2)C(C)(C)C)cc1 [Compound 189] yielded a DC50 of over 15 nM. Compound CN1CCN([C@@H]2CCCN(c3cnc(C(N)=O)c(Nc4ccc(C5CCN(CC6CCN(c7ccc(CC8CCC(=O)NC8=O)cn7)CC6)CC5)cc4)n3)C2)C1=O (some centres unmarked) [Compound 190] has a DC50 of 5 to 15 nM. NC(=O)c1ncc(N2CCCCC2)nc1Nc1ccc(C2CCN(CC3CCN(c4ncc(C(=O)NC5CCC(=O)NC5=O)o4)CC3)CC2)cc1 (centres unmarked) [Compound 191] gave a DC50 of 5 to 15 nM. In the case of CN1CCN([C@@H]2CCCN(c3cnc(C(N)=O)c(Nc4ccc(C5CCN(CC6CCN(c7ncc(C(=O)NC8CCC(=O)NC8=O)o7)CC6)CC5)cc4)n3)C2)C1=O (some centres unmarked) [Compound 192], the DC50 is reported as under 5 nM. In the case of NC(=O)c1ncc(N2CCC[C@@H](CO)C2)nc1Nc1ccc(C2CCN(C[C@@H]3CCN(c4ccc5c(c4)C(=O)N(C4CCC(=O)NC4=O)C5=O)C3)CC2)cc1 (some centres unmarked) [Compound 193], the DC50 is reported as under 5 nM.
